From ChEMBL document CHEMBL1201862, “PubChem BioAssay data set” (2004)
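Dose response: 5 concentrations. Exposure: 48 h. Format: 96-well plates. Endpoint: linear interpolation; highest concentration if not reached. GI50: concentration for 50% inhibition of growth.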 Calls of active or inactive are those of the source. Rule as the data show it: active = GI50 up to about 1.1 µM and inactive = higher.

Legend:
Test in all cases: growth of human tumour cells (NCI), 48 h
786-0 = tested on: 786-0
ACHN = tested on: ACHN
HCC 2998 = tested on: HCC 2998
HOP-92 = tested on: HOP-92
HT-29 = tested on: HT-29
IGROV-1 = tested on: IGROV-1
LOX IMVI = tested on: LOX IMVI
Malme-3M = tested on: Malme-3M
NCI-H23 = tested on: NCI-H23
NCI-H522 = tested on: NCI-H522
OVCAR-3 = tested on: OVCAR-3
RXF 393 = tested on: RXF 393
SK-MEL-5 = tested on: SK-MEL-5
SNB-19 = tested on: SNB-19
SNB-75 = tested on: SNB-75
SW-620 = tested on: SW-620
U-251 = tested on: U-251
UO-31 = tested on: UO-31
MCF7 = tested on: MCF7
T47D = tested on: T47D

Row | SMILES | GI50 (786-0) | GI50 (ACHN) | GI50 (HCC 2998) | GI50 (HOP-92) | GI50 (HT-29) | GI50 (IGROV-1) | GI50 (LOX IMVI) | GI50 (Malme-3M) | GI50 (NCI-H23) | GI50 (NCI-H522) | GI50 (OVCAR-3) | GI50 (RXF 393) | GI50 (SK-MEL-5) | GI50 (SNB-19) | GI50 (SNB-75) | GI50 (SW-620) | GI50 (U-251) | GI50 (UO-31) | GI50 (MCF7) | GI50 (T47D)
1 | CCOC(=O)/C(O)=C(/c1n[nH]c(=O)c2ccccc12)[N+](=O)[O-] | > 100 µM (inactive) | > 100 µM (inactive) | > 100 µM (inactive) | > 100 µM (inactive) | > 100 µM (inactive) | > 100 µM (inactive) | > 100 µM (inactive) | > 100 µM (inactive) | > 100 µM (inactive) | > 100 µM (inactive) | > 100 µM (inactive) | > 100 µM (inactive) | > 100 µM (inactive) | > 100 µM (inactive) | > 100 µM (inactive) | > 100 µM (inactive) | > 100 µM (inactive) | > 100 µM (inactive) |  | 
2 | Cc1cc(Cl)ccc1NC(=O)C1C(=O)N(c2ccc(Cl)cc2C)C(=O)/C1=N\N (configuration not stated) | 81.3 µM (inactive) | 34.1 µM (inactive) | 24.9 µM (inactive) | 34.7 µM (inactive) | 53.6 µM (inactive) | 55.1 µM (inactive) | 51.2 µM (inactive) | 71.8 µM (inactive) | 36.9 µM (inactive) | 53.5 µM (inactive) | 30.8 µM (inactive) | > 100 µM (inactive) | 30.5 µM (inactive) | 38.9 µM (inactive) | 42.6 µM (inactive) | 42.4 µM (inactive) | 33 µM (inactive) | 33 µM (inactive) |  | 
3 | Cc1c(NC(=O)c2cc([N+](=O)[O-])cc([N+](=O)[O-])c2)c(=O)n(-c2ccccc2)n1C | > 100 µM (inactive) |  |  | 76.9 µM (inactive) | 33.2 µM (inactive) | 48.8 µM (inactive) | > 100 µM (inactive) | 27.3 µM (inactive) | > 100 µM (inactive) |  | 29.9 µM (inactive) | > 100 µM (inactive) | > 100 µM (inactive) | > 100 µM (inactive) |  | > 100 µM (inactive) | > 100 µM (inactive) | > 100 µM (inactive) | 61.7 µM (inactive) | 
4 | CN(/N=C/c1ccnc2ccccc12)c1ccc(Cl)cc1[N+](=O)[O-] | 49.9 µM (inactive) | > 100 µM (inactive) | > 100 µM (inactive) | 25.8 µM (inactive) | 98.2 µM (inactive) | > 100 µM (inactive) |  | 70.3 µM (inactive) | 8.57 µM (inactive) | > 100 µM (inactive) | 80.9 µM (inactive) | 37.3 µM (inactive) | 6.12 µM (inactive) | > 100 µM (inactive) | 26.6 µM (inactive) | > 100 µM (inactive) | > 100 µM (inactive) | > 100 µM (inactive) | 83.9 µM (inactive) | 
5 | COC(=O)C1=C(C(=O)OC)C2(c3ccccc3)OC1(c1ccccc1)c1cc3ccccc3cc12 | 1.4 µM (inactive) | 1.68 µM (inactive) | 1.95 µM (inactive) | 1.09 µM (active) | 1.77 µM (inactive) | 1.9 µM (inactive) | 1.32 µM (inactive) | 1.6 µM (inactive) | 1.92 µM (inactive) | 1.23 µM (inactive) | 1.37 µM (inactive) | 1.29 µM (inactive) | 2.21 µM (inactive) | 4.2 µM (inactive) | 0.604 µM (active) | 1.76 µM (inactive) | 6.43 µM (inactive) | 1.42 µM (inactive) |  | 
6 | CCCCCc1cc2cc3c(c(O)c2c(=O)[nH]1)C1(CCC3)C(=O)c2c(O)ccc(O)c2C1=O | > 100 µM (inactive) | > 100 µM (inactive) | > 100 µM (inactive) | > 100 µM (inactive) | > 100 µM (inactive) | > 100 µM (inactive) | > 100 µM (inactive) | > 100 µM (inactive) | > 100 µM (inactive) | > 100 µM (inactive) | > 100 µM (inactive) | 43 µM (inactive) | > 100 µM (inactive) | > 100 µM (inactive) | 58.2 µM (inactive) | 56 µM (inactive) | > 100 µM (inactive) | > 100 µM (inactive) | > 100 µM (inactive) | 
7 | O=C(O)CCC(NC(=O)c1ccc(CNc2nc3cc(C(F)(F)F)ccc3nc2C(=O)O)cc1)C(=O)O (configuration not stated) | > 100 µM (inactive) | > 100 µM (inactive) | > 100 µM (inactive) | > 100 µM (inactive) | > 100 µM (inactive) | > 100 µM (inactive) | > 100 µM (inactive) | > 100 µM (inactive) | > 100 µM (inactive) | > 100 µM (inactive) | > 100 µM (inactive) | > 100 µM (inactive) |  | > 100 µM (inactive) | > 100 µM (inactive) | > 100 µM (inactive) | > 100 µM (inactive) | > 100 µM (inactive) |  | > 100 µM (inactive)
8 | BrC(c1cccc2ccccc12)c1cccc2ccccc12 | 13.7 µM (inactive) | 21.9 µM (inactive) |  | 13.5 µM (inactive) | 18.3 µM (inactive) | 13.8 µM (inactive) | 15.8 µM (inactive) | 4.94 µM (inactive) | 19.9 µM (inactive) | 10.9 µM (inactive) | 11.9 µM (inactive) | 13.6 µM (inactive) | 17.5 µM (inactive) | 43.4 µM (inactive) | 13.5 µM (inactive) | 16.7 µM (inactive) | 16.9 µM (inactive) | 26.8 µM (inactive) |  | 29.4 µM (inactive)
